These results are taken from the supplement of paper PMC11208160.
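Note: IS621 recombinase and bridge RNA in Escherichia coli cells.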

This data set in a line: recombinant barcode read abundance after kanamycin selection (control-corrected) (log10(CPM+1)); higher = more efficient recombination; sequences stand for … in AGTGCAGAGAAAATCGGCCAGTTTTCTCTGCCTGCAGTCCGCATGCCGT…AGATTTATGCAGCGGACTGCCTTTCTCCCAAAGTGATAAACCGGACAGTATCATGGACCGGTTTTCCCGGTAATCCGTATTTGCAAGGTTGGTTTCACT; site = the 11-nt target. The method, boiled down: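 A vector carrying a T7-inducible recombinase and the last 73 bp of the bridge RNA received, by Gibson cloning, oligos encoding a promoter, target, barcode and the first 104 bridge RNA bases under J23119. The pooled constructs entered E. coli together with a donor plasmid by electroporation. Selection used chloramphenicol/ampicillin/kanamycin with 0.1 mM IPTG, with chloramphenicol/ampicillin LB agar as the control, each in two replicates. Recombination efficiency is the averaged, control-corrected counts-per-million of barcodes at recombinant junctions, reported as log10(CPM+1).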
In the case of “CTAGTGACTTGGGTTCTAACCTGTTGCGG (site CTAGTGACTTC)”, the “recombinant barcode read abundance (log10)” value was determined as 0.352.

With “CTAGTGTCTTGGGTTCTAACCTGTTGCAC (site CTAGTCACTGT)”, the “recombinant barcode read abundance (log10)” value was 0.198.

For the sequence “CTAGTGTCTTGGGTTCTAACCTGTTGCAC (site CTAGTGTCTGT)”, the “recombinant barcode read abundance (log10)” value came to 1.88.

Regarding “CTAGTGTCTTGGGTTCTAACCTGTTGCTA (site CTAGTGTCTTA)”, the “recombinant barcode read abundance (log10)” value came out at 2.72.

“CTAGTGTCTTGGGTTCTAACCTGTTGCTA (site GTAGTGTCTTA)”: the “recombinant barcode read abundance (log10)” value turned out to be 0.0109.

Regarding “CTATAGGCTTGGGTTCTAACCTGTTGCCT (site ATATACGCTAG)”, the “recombinant barcode read abundance (log10)” value is 0.0845.

As to “CTATAGGCTTGGGTTCTAACCTGTTGCCT (site CTATAGGCTAG)”, the “recombinant barcode read abundance (log10)” value stood at 0.159.

For “CTATATACTTGGGTTCTAACCTGTTGCCA (site CTATATACTTG)”, the “recombinant barcode read abundance (log10)” value was 0.154.

For the sequence “CTATATACTTGGGTTCTAACCTGTTGCCA (site CTGTATACTTG)”, the “recombinant barcode read abundance (log10)” value came to 0.

Take “CTATATACTTGGGTTCTAACCTGTTGCTT (site CTAAATACTAA)”: the “recombinant barcode read abundance (log10)” value was 0.088.

“CTATATACTTGGGTTCTAACCTGTTGCTT (site CTATATACTAA)”: the “recombinant barcode read abundance (log10)” value was 0.804.

Turning to “CTATGAACTTGGGTTCTAACCTGTTGCCA (site CTATGAACTTG)”, the “recombinant barcode read abundance (log10)” value came out at 0.283.

As to “CTATGAACTTGGGTTCTAACCTGTTGCCA (site GACATTCCTAA)”, the “recombinant barcode read abundance (log10)” value was 0.0769.

On to “CTATGACCTTGGGTTCTAACCTGTTGCAT (site CTATGACCTAA)”, for which the “recombinant barcode read abundance (log10)” value amounted to 0.0613.

Take “CTATGACCTTGGGTTCTAACCTGTTGCAT (site CTATGACCTAC)”: the “recombinant barcode read abundance (log10)” value amounted to 0.139.

With “CTATGACCTTGGGTTCTAACCTGTTGCAT (site CTATGACCTAG)”, the “recombinant barcode read abundance (log10)” value is 0.19.

As to “CTATGACCTTGGGTTCTAACCTGTTGCAT (site CTATGACCTAT)”, the “recombinant barcode read abundance (log10)” value turned out to be 0.568.

Turning to “CTATGACCTTGGGTTCTAACCTGTTGCGT (site CTATGACCTAA)”, the “recombinant barcode read abundance (log10)” value worked out at 0.191.

As to “CTATGACCTTGGGTTCTAACCTGTTGCGT (site CTATGACCTAC)”, the “recombinant barcode read abundance (log10)” value turned out to be 2.11.

Take “CTATGACCTTGGGTTCTAACCTGTTGCGT (site CTATGACCTAG)”: the “recombinant barcode read abundance (log10)” value stood at 0.211.

For the sequence “CTATGACCTTGGGTTCTAACCTGTTGCGT (site CTATGACCTAT)”, the “recombinant barcode read abundance (log10)” value was found to be 1.26.

For the sequence “CTATGACCTTGGGTTCTAACCTGTTGCTT (site CTATGACCTAA)”, the “recombinant barcode read abundance (log10)” value is 1.4.

With “CTATGACCTTGGGTTCTAACCTGTTGCTT (site CTATGACCTAC)”, the “recombinant barcode read abundance (log10)” value was found to be 0.0411.

Turning to “CTATGACCTTGGGTTCTAACCTGTTGCTT (site CTATGACCTAG)”, the “recombinant barcode read abundance (log10)” value turned out to be 1.26.

Consider “CTATGACCTTGGGTTCTAACCTGTTGCTT (site CTATGACCTAT)”, for which the “recombinant barcode read abundance (log10)” value was 0.394.

Take “CTATGGACTTGGGTTCTAACCTGTTGCAA (site CTATGGACTAT)”: the “recombinant barcode read abundance (log10)” value worked out at 0.0174.

On to “CTATGGACTTGGGTTCTAACCTGTTGCAA (site CTATGGACTCT)”, for which the “recombinant barcode read abundance (log10)” value stood at 0.23.

As to “CTATGGACTTGGGTTCTAACCTGTTGCAA (site CTATGGACTGT)”, the “recombinant barcode read abundance (log10)” value stood at 0.274.

Consider “CTATGGACTTGGGTTCTAACCTGTTGCAA (site CTATGGACTTT)”, for which the “recombinant barcode read abundance (log10)” value stood at 1.39.

Regarding “CTATGGACTTGGGTTCTAACCTGTTGCAT (site CTATGGACTAT)”, the “recombinant barcode read abundance (log10)” value was 0.348.

Take “CTATGGACTTGGGTTCTAACCTGTTGCAT (site CTATGGACTCT)”: the “recombinant barcode read abundance (log10)” value is 0.614.

On to “CTATGGACTTGGGTTCTAACCTGTTGCAT (site CTATGGACTGT)”, for which the “recombinant barcode read abundance (log10)” value amounted to 0.217.

Regarding “CTATGGACTTGGGTTCTAACCTGTTGCAT (site CTATGGACTTT)”, the “recombinant barcode read abundance (log10)” value is 0.0336.

As for “CTATGTCCTTGGGTTCTAACCTGTTGCGT (site CTATGTCCTAC)”, the “recombinant barcode read abundance (log10)” value is 1.44.

For the sequence “CTATGTCCTTGGGTTCTAACCTGTTGCGT (site GGATGTCCTAC)”, the “recombinant barcode read abundance (log10)” value came out at 0.228.

For the sequence “CTATGTGCTTGGGTTCTAACCTGTTGCAT (site CTATGTGCTAA)”, the “recombinant barcode read abundance (log10)” value stood at 0.295.

Consider “CTATGTGCTTGGGTTCTAACCTGTTGCAT (site CTATGTGCTAC)”, for which the “recombinant barcode read abundance (log10)” value amounted to 0.168.

Turning to “CTATGTGCTTGGGTTCTAACCTGTTGCAT (site CTATGTGCTAG)”, the “recombinant barcode read abundance (log10)” value worked out at 0.0201.

As to “CTATGTGCTTGGGTTCTAACCTGTTGCAT (site CTATGTGCTAT)”, the “recombinant barcode read abundance (log10)” value was found to be 0.109.

Regarding “CTATTCACTTGGGTTCTAACCTGTTGCCT (site CTATTCACTAG)”, the “recombinant barcode read abundance (log10)” value amounted to 1.34.

Turning to “CTATTCACTTGGGTTCTAACCTGTTGCCT (site CTATTCCCTAG)”, the “recombinant barcode read abundance (log10)” value was 0.0733.

Consider “CTATTCACTTGGGTTCTAACCTGTTGCCT (site CTATTCGCTAG)”, for which the “recombinant barcode read abundance (log10)” value was found to be 0.0529.

Regarding “CTATTCACTTGGGTTCTAACCTGTTGCCT (site CTATTCTCTAG)”, the “recombinant barcode read abundance (log10)” value stood at 0.091.

Turning to “CTATTCTCTTGGGTTCTAACCTGTTGCTA (site CTATACTCTTG)”, the “recombinant barcode read abundance (log10)” value was found to be 0.115.

With “CTATTCTCTTGGGTTCTAACCTGTTGCTA (site CTATTCTCTTA)”, the “recombinant barcode read abundance (log10)” value was 1.62.

Turning to “CTATTGTCTTGGGTTCTAACCTGTTGCGT (site CTATTGTCTAC)”, the “recombinant barcode read abundance (log10)” value came out at 2.78.

Consider “CTATTGTCTTGGGTTCTAACCTGTTGCGT (site CTATTGTCTCC)”, for which the “recombinant barcode read abundance (log10)” value was determined as 0.019.

With “CTATTGTCTTGGGTTCTAACCTGTTGCGT (site CTATTGTCTGC)”, the “recombinant barcode read abundance (log10)” value stood at 0.475.

Regarding “CTATTGTCTTGGGTTCTAACCTGTTGCGT (site CTATTGTCTTC)”, the “recombinant barcode read abundance (log10)” value stood at 0.0685.

With “CTATTTACTTGGGTTCTAACCTGTTGCGG (site CTATTTACTCC)”, the “recombinant barcode read abundance (log10)” value was 0.781.

Consider “CTATTTACTTGGGTTCTAACCTGTTGCGG (site TGTCGGCCTAA)”, for which the “recombinant barcode read abundance (log10)” value was 0.0533.

For “CTATTTCCTTGGGTTCTAACCTGTTGCCT (site CGGTTTCCTAG)”, the “recombinant barcode read abundance (log10)” value turned out to be 0.032.

On to “CTATTTCCTTGGGTTCTAACCTGTTGCCT (site CTATTTCCTAG)”, for which the “recombinant barcode read abundance (log10)” value was 0.284.

As to “CTCAAACCTTGGGTTCTAACCTGTTGCTT (site CTCAAACCTAA)”, the “recombinant barcode read abundance (log10)” value stood at 0.355.

For “CTCAAACCTTGGGTTCTAACCTGTTGCTT (site CTCACACCTAA)”, the “recombinant barcode read abundance (log10)” value amounted to 0.15.

On to “CTCAAGACTTGGGTTCTAACCTGTTGCGG (site CTCAAGACTCC)”, for which the “recombinant barcode read abundance (log10)” value came out at 2.5.

On to “CTCAAGACTTGGGTTCTAACCTGTTGCGG (site CTCTAGACTCA)”, for which the “recombinant barcode read abundance (log10)” value stood at 0.219.

Take “CTCACACCTTGGGTTCTAACCTGTTGCAG (site CTCACACCTCT)”: the “recombinant barcode read abundance (log10)” value is 0.968.

“CTCACACCTTGGGTTCTAACCTGTTGCAG (site TGTCATGCTAC)”: the “recombinant barcode read abundance (log10)” value came to 0.331.

On to “CTCACGCCTTGGGTTCTAACCTGTTGCTT (site CACACGCCTAG)”, for which the “recombinant barcode read abundance (log10)” value is 0.228.

“CTCACGCCTTGGGTTCTAACCTGTTGCTT (site CTCACGCCTAA)”: the “recombinant barcode read abundance (log10)” value was 0.237.

Turning to “CTCAGGTCTTGGGTTCTAACCTGTTGCCA (site CTCAGGTCTAG)”, the “recombinant barcode read abundance (log10)” value turned out to be 0.18.

Regarding “CTCAGGTCTTGGGTTCTAACCTGTTGCCA (site CTCAGGTCTTG)”, the “recombinant barcode read abundance (log10)” value came out at 0.193.

With “CTCATTCCTTGGGTTCTAACCTGTTGCAT (site CTCATTCCTAA)”, the “recombinant barcode read abundance (log10)” value worked out at 0.0718.

On to “CTCATTCCTTGGGTTCTAACCTGTTGCAT (site CTCATTCCTAC)”, for which the “recombinant barcode read abundance (log10)” value worked out at 0.0351.

Take “CTCATTCCTTGGGTTCTAACCTGTTGCAT (site CTCATTCCTAG)”: the “recombinant barcode read abundance (log10)” value was 0.112.

Regarding “CTCATTCCTTGGGTTCTAACCTGTTGCAT (site CTCATTCCTAT)”, the “recombinant barcode read abundance (log10)” value is 0.523.

Turning to “CTCATTCCTTGGGTTCTAACCTGTTGCTT (site CTCATTCCTAA)”, the “recombinant barcode read abundance (log10)” value was found to be 0.211.

For the sequence “CTCATTCCTTGGGTTCTAACCTGTTGCTT (site CTCATTCCTAC)”, the “recombinant barcode read abundance (log10)” value came to 0.482.

As to “CTCATTCCTTGGGTTCTAACCTGTTGCTT (site CTCATTCCTAG)”, the “recombinant barcode read abundance (log10)” value stood at 0.0511.

For the sequence “CTCATTCCTTGGGTTCTAACCTGTTGCTT (site CTCATTCCTAT)”, the “recombinant barcode read abundance (log10)” value worked out at 0.0615.

“CTCCATCCTTGGGTTCTAACCTGTTGCCT (site CTCCATACTAG)”: the “recombinant barcode read abundance (log10)” value was determined as 0.

As for “CTCCATCCTTGGGTTCTAACCTGTTGCCT (site CTCCATCCTAG)”, the “recombinant barcode read abundance (log10)” value turned out to be 0.898.

“CTCCATCCTTGGGTTCTAACCTGTTGCCT (site CTCCATGCTAG)”: the “recombinant barcode read abundance (log10)” value was 0.0326.

Take “CTCCATCCTTGGGTTCTAACCTGTTGCCT (site CTCCATTCTAG)”: the “recombinant barcode read abundance (log10)” value came to 0.0176.

As to “CTCCATGCTTGGGTTCTAACCTGTTGCCT (site CTCCATACTAG)”, the “recombinant barcode read abundance (log10)” value came to 0.325.

Take “CTCCATGCTTGGGTTCTAACCTGTTGCCT (site CTCCATCCTAG)”: the “recombinant barcode read abundance (log10)” value is 0.312.
